Assay results as given in patent US8846638B2, “Macrocyclic nucleoside phosphoramidate derivatives” (Enanta Pharmaceuticals, Inc., priority 2012, dated 2014).

What was measured:
[1] = system: HCV 1a genotype replicon (strain H77, Huh-1a7 cell line); test: HCV replicon assay, qRT-PCR, genotype 1a (Huh-1a7 cells); type: cell-based; details: Hepatitis C virus; Genotype-1a replicon, HCV RNA by qRT-PCR normalized to GAPDH RNA
From the text: (§1) HCV replicon cell lines (kindly provided by R. Bartenschlager) isolated from colonies as described by Lohman et al. (Lohman et al. (1999) Science 285: 110-113, expressly incorporated by reference in its entirety) and used for all experiments. One of the HCV replicon cell lines (strain Con1, genotype 1b) has the nucleic acid sequence set forth in EMBL Accession No.: AJ242651, the coding sequence of which is from nucleotides 1801 to 8406. Another replicon cell line (strain H77, genotype 1a) was constructed as described by Yi et. al. (Yi et. al. (2004) Journal of Virology 78(15):7904-15). The coding sequences of the published HCV replicons were synthesized and subsequently assembled in plasmids using standard molecular biology techniques.
(§2) One replicon cell line (“SGR 11-7”) stably expresses HCV replicon RNA, genotype 1b, which consists of (i) the HCV 5′UTR fused to the first 12 amino acids of the capsid protein, (ii) the neomycin phosphotransferase gene (neo), (iii) the IRES from encephalomyocarditis virus (EMCV) and (iv) HCV […] to NS5B genes and the HCV 3′UTR. Another replicon cell line (“Huh-1a7”) described by Yi et. al. (Yi et. al. (2004) Journal of Virology 78(15):7904-15, expressly incorporated by reference in its entirety) stably expresses HCV replicon RNA, genotype 1a, which consists of (i) the HCV 5′UTR fused to the first 12 amino acids of the capsid protein, (ii) the HIV tat protein, (iii) the neomycin phosphotransferase gene (neo), (iv) the IRES from encephalomyocarditis virus (EMCV) and (vi) HCV NS3 to NS5B genes that harbor cell culture adaptive mutations (Q1067R, K1691R, S2204I) and the HCV 3′UTR.
(§3) These cell lines are maintained at 37° C., 5% CO2, 100% relative humidity in DMEM (Cat#11965-084, Invitrogen), with 10% fetal calf serum (“FCS”, Invitrogen), 1% non-essential amino acids (Invitrogen), 1% of Glutamax (Invitrogen), 1% of 10× penicillin/streptomycin (Cat#15140-122, Invitrogen) and Geneticin (Cat#10131-027, Invitrogen) at 0.75 mg/ml or 0.25 mg/ml for 11-7 and Huh-1a7 cells, respectively.
(§4) EC50 values of single agent compounds were determined by HCV RNA detection using quantitative RT-PCR, according to the manufacturer's instructions, with a TAQMAN® One-Step RT-PCR Master Mix Reagents Kit (Cat#AB 4309169, Applied Biosystems) on an ABI Model 7500 thermocycler. EC50 values of combinations are similarly determined by HCV RNA detection using quantitative RT-PCR. The TAQMAN primers to use for detecting and quantifying HCV RNA obtained from Integrated DNA Technologies. HCV RNA is normalized to GAPDH RNA levels in drug-treated cells, which is detected and quantified using the Human GAPDH Endogenous Control Mix (Applied Biosystems, AB 4310884E). Total cellular RNA is purified from 96-well plates using the RNAqueous 96 kit (Ambion, Cat#AM1812). Chemical agent cytotoxicity is evaluated using an MTS assay according to the manufacturer's directions (Promega).
(§5) The compounds of the present invention can be effective against the HCV 1a and 1b genotypes. It should also be understood that the compounds of the present invention can inhibit multiple genotypes of HCV. In one embodiment, compounds of the present invention are active against the 1a, 1b, 2a, 2b, 3a, 4a, and 5a genotypes. […] EC50 ranges against HCV 1a or 1b are as follows: A>1 μM; B 0.1-1 μM; C<0.1 μM.

[2] = system: HCV 1b genotype replicon (strain Con1, SGR 11-7 cell line); test: HCV replicon assay, qRT-PCR, genotype 1b (SGR 11-7 cells); type: cell-based; details: Hepatitis C virus; Genotype-1b replicon, HCV RNA by qRT-PCR normalized to GAPDH RNA
From the text: as §1, §2, §3, §4, §5

| Structure (SMILES) | EC50 [1] | EC50 [2] |
| --- | --- | --- |
| C[C@@H]1NP(=O)(Oc2cccc3ccccc23)OCC2OC(n3cnc4c(nc(N)nc43)OCCCCC(F)(F)COC1=O)[C@](C)(O)[C@@H]2O (stereo partly shown) [Example 2] | 100 to 1000 nM | 100 to 1000 nM |
| C[C@@H]1NP(=O)(Oc2cccc3ccccc23)OCC2OC(n3cnc4c(nc(N)nc43)OCCCCCCCOC1=O)[C@](C)(O)[C@@H]2O (stereo partly shown) [Example 3] | < 100 nM | 100 to 1000 nM |
| CC(C)C[C@@H]1NP(=O)(Oc2cccc3ccccc23)OCC2OC(n3cnc4c(nc(N)nc43)OCCCCCCCOC1=O)[C@](C)(O)[C@@H]2O (stereo partly shown) [Example 4] | 100 to 1000 nM | > 1000 nM |
| C[C@@H]1NP(=O)(Oc2cccc3ccccc23)OCC2OC(n3cnc4c(nc(N)nc43)OCCCCCOCCCOC1=O)[C@](C)(O)[C@@H]2O (stereo partly shown) [Example 5] | 100 to 1000 nM | > 1000 nM |
| C[C@@H]1NP(=O)(Oc2cccc3ccccc23)OCC2OC(n3cnc4c(nc(N)nc43)OCCCCCCOC1=O)[C@](C)(O)[C@@H]2O (stereo partly shown) [Example 7] | < 100 nM | 100 to 1000 nM |
| C[C@@H]1NP(=O)(Oc2ccccc2)OCC2OC(n3cnc4c(nc(N)nc43)OCCCCCCCOC1=O)[C@](C)(O)[C@@H]2O (stereo partly shown) [Example 8] | 100 to 1000 nM | 100 to 1000 nM |
| C[C@@H]1NP(=O)(Oc2ccccc2)OCC2OC(n3cnc4c(nc(N)nc43)OCCCCCCCCOC1=O)[C@](C)(O)[C@@H]2O (stereo partly shown) [Example 9] | 100 to 1000 nM | 100 to 1000 nM |
| C[C@@H]1NP(=O)(Oc2cccc3ccccc23)OCC2OC(n3cnc4c(nc(N)nc43)OCCC=CCCCOC1=O)[C@](C)(O)[C@@H]2O (stereo partly shown) [Example 10] | 100 to 1000 nM | 100 to 1000 nM |
